For this assay, the target named is T1, PI3Kδ (Homo sapiens, UniProt O00329).
T1 construct: The protein is full length and co-expressed with untagged PIK3R1; GST; purchased Invitrogen PV5274
T1 sequence (O00329 whole entry): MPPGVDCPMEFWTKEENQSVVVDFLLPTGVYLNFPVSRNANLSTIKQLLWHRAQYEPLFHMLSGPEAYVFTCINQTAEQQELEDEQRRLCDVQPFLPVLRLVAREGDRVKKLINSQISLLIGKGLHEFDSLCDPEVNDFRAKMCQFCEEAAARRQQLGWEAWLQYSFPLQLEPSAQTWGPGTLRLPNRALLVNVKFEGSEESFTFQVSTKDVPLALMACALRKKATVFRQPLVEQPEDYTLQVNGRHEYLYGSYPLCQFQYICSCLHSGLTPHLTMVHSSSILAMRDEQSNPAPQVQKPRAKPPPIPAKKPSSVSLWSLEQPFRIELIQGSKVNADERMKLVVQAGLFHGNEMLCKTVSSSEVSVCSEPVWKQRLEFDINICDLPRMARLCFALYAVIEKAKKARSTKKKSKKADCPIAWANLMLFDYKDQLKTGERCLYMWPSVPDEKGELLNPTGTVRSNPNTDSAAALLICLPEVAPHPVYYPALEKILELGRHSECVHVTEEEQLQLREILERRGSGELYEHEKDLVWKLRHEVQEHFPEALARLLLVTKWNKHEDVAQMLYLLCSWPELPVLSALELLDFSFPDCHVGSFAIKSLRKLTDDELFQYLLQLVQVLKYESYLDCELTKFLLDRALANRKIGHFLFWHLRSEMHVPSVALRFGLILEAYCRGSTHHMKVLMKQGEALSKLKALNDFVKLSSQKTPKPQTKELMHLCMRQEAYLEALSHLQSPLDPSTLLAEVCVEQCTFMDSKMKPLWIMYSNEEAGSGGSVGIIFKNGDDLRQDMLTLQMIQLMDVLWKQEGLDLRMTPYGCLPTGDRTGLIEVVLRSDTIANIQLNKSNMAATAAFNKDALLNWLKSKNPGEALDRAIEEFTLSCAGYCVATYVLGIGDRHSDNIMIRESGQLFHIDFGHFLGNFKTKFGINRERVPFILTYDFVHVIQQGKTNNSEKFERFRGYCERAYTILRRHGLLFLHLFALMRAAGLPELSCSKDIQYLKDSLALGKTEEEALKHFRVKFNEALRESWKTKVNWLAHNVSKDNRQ
T1 sequence (P27986 whole entry partner): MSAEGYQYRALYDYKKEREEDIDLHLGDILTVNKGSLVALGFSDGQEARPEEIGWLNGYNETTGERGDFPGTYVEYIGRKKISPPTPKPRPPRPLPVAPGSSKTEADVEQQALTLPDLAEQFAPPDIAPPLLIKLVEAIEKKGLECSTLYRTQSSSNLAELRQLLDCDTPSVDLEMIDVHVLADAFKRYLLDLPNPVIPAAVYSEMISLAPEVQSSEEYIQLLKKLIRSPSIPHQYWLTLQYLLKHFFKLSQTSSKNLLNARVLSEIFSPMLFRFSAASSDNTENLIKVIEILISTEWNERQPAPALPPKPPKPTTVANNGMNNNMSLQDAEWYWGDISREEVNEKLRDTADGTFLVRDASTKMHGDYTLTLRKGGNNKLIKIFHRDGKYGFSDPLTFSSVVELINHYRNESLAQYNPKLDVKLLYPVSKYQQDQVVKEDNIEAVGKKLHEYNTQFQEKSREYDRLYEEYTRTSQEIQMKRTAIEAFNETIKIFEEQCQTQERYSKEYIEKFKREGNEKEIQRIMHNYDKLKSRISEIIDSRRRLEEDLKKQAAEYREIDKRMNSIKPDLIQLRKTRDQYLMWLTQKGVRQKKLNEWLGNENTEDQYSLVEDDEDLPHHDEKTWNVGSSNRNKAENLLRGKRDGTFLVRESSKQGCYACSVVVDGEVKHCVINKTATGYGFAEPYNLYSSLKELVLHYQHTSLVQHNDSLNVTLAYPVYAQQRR
The experiment in a line: PI3Kδ inhibition, modified PIK3CD Adapta TR-FRET assay. In kind it is biochemical. As to conditions: recombinant GST-tagged full length PIK3CD co-expressed with PIK3R1 (p85α); 2 μM ATP, 50 μM PIP2; read-out: PI3Kδ Inhibition (pIC50) (converted). The procedure, abridged:
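Full-length GST-PIK3CD co-expressed with p85α was run in 50 mM HEPES pH 7.5, 3 mM MgCl2, 1 mM EGTA, 100 mM NaCl, 0.03% CHAPS, 2 mM DTT, 1% DMSO, with 12-point compound titrations. Reactions at room temperature were started with solution containing 2 μM ATP and 50 μM PIP2. ADP was detected by Adapta TR-FRET (620 nm-ratioed).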
`CNC(=O)Nc1ccc(-c2ncc3c(n2)N2CCOCC2C(=O)N3[C@H](C)c2ccc(Cl)cc2)cc1` (stereo partly drawn) [Example 84, 1-(4-(5-((R)-1-(4-chlorophenyl)ethyl)-6-oxo-5,6,6a,7,9,10-hexahydro-[1,4]oxazino[3,4-h]pteridin-2-yl)phenyl)-3-methylurea]: the IC50 was 0.126 µM.
The figure for `CNC(=O)Nc1ccc(-c2ncc3c(n2)N2CCOCC2C(=O)N3Cc2ccc(C(=O)OC)cc2)cc1` (centres unmarked) [Example 88, methyl 4-((2-(4-(3-methylureido)phenyl)-6-oxo-6a,7,9,10-tetrahydro-[1,4]oxazino[3,4-h]pteridin-5(6H)-yl)methyl)benzoate] is 0.00631 µM.
Take `CNC(=O)Nc1ccc(-c2ncc3c(n2)N2CCOCC2C(=O)N3Cc2ccc(Cl)cc2)cc1` (centres unmarked) [Example 89, 1-(4-(5-(4-chlorobenzyl)-6-oxo-5,6,6a,7,9,10-hexahydro-[1,4]oxazino[3,4-h]pteridin-2-yl)phenyl)-3-methylurea]: the IC50 is 0.0631 µM.
The value for `CNC(=O)Nc1ccc(-c2ncc3c(n2)N2CCOCC2C(=O)N3Cc2cccc(-n3cccc3)c2)cc1` (centres unmarked) [Example 90, 1-(4-(5-(3-(1H-pyrrol-1-yl)benzyl)-6-oxo-5,6,6a,7,9,10-hexahydro-[1,4]oxazino[3,4-h]pteridin-2-yl)phenyl)-3-methylurea] was 0.00501 µM; that for `CNC(=O)Nc1ccc(-c2ncc3c(n2)N2CCOCC2C(=O)N3Cc2ccc(S(C)(=O)=O)cc2)cc1` (centres unmarked) [Example 91, 1-methyl-3-(4-(5-(4-(methylsulfonyl)benzyl)-6-oxo-5,6,6a,7,9,10-hexahydro-[1,4]oxazino[3,4-h]pteridin-2-yl)phenyl)urea] was 0.000794 µM.
As for `CNC(=O)Nc1ccc(-c2ncc3c(n2)N2CCOCC2C(=O)N3Cc2ccc(-n3cncn3)cc2)cc1` (centres unmarked) [Example 92, 1-(4-(5-(4-(1H-1,2,4-triazol-1-yl)benzyl)-6-oxo-5,6,6a,7,9,10-hexahydro-[1,4]oxazino[3,4-h]pteridin-2-yl)phenyl)-3-methylurea], the IC50 was 0.002 µM.
The value for `CNC(=O)Nc1ccc(-c2ncc3c(n2)N2CCOCC2C(=O)N3CC2CC2(F)F)cc1` (centres unmarked) [Example 93, 1-(4-(5-((2,2-difluorocyclopropyl)methyl)-6-oxo-5,6,6a,7,9,10-hexahydro-[1,4]oxazino[3,4-h]pteridin-2-yl)phenyl)-3-methylurea] was 0.00501 µM.
Regarding `CNC(=O)Nc1ccc(-c2ncc3c(n2)N2CCOCC2C(=O)N3CCc2c(C)n[nH]c2C)cc1` (centres unmarked) [Example 94, 1-(4-(5-(2-(3,5-dimethyl-1H-pyrazol-4-yl)ethyl)-6-oxo-5,6,6a,7,9,10-hexahydro-[1,4]oxazino[3,4-h]pteridin-2-yl)phenyl)-3-methylurea], the IC50 is 0.00251 µM.
Turning to `CNC(=O)Nc1ccc(-c2ncc3c(n2)N2CCOCC2C(=O)N3Cc2ccc(S(C)(=O)=O)cc2Cl)cc1` (centres unmarked) [Example 95, 1-(4-(5-(2-chloro-4-(methylsulfonyl)benzyl)-6-oxo-5,6,6a,7,9,10-hexahydro-[1,4]oxazino[3,4-h]pteridin-2-yl)phenyl)-3-methylurea], the IC50 is 0.000794 µM.
With `O=C1C2COCCN2c2nc(-c3cn[nH]c3)ncc2N1[C@H]1CCc2ccccc21` (stereo partly drawn) [Example 96, 5-((S)-2,3-dihydro-1H-inden-1-yl)-2-(1H-pyrazol-4-yl)-6a,7,9,10-tetrahydro-[1,4]oxazino[3,4-h]pteridin-6(5H)-one], the IC50 is 0.631 µM.
The figure for `CC(C)NS(=O)(=O)c1cccc(-c2ncc3c(n2)N2CCOCC2C(=O)N3Cc2ccc(S(C)(=O)=O)cc2)c1` (centres unmarked) [Example 98, N-isopropyl-3-(5-(4-(methylsulfonyl)benzyl)-6-oxo-5,6,6a,7,9,10-hexahydro-[1,4]oxazino[3,4-h]pteridin-2-yl)benzenesulfonamide] is 6.31 µM.
The figure for `CNC(=O)Nc1ccc(-c2ncc3c(n2)N2CCOCC2C(=O)N3C2(c3ccc(Cl)cc3)CC2)cc1` (centres unmarked) [Example 99, 1-(4-(5-(1-(4-chlorophenyl)cyclopropyl)-6-oxo-5,6,6a,7,9,10-hexahydro-[1,4]oxazino[3,4-h]pteridin-2-yl)phenyl)-3-methylurea] is 0.00631 µM.
In the case of `CS(=O)(=O)c1ccc(CN2C(=O)C3COCCN3c3nc(-c4ccc5cc[nH]c5c4)ncc32)cc1` (centres unmarked) [Example 100, 2-(1H-indol-6-yl)-5-(4-(methylsulfonyl)benzyl)-6a,7,9,10-tetrahydro-[1,4]oxazino[3,4-h]pteridin-6(5H)-one], the IC50 is 3.98 µM.
As to `CC(=O)Nc1cccc(-c2ncc3c(n2)N2CCOCC2C(=O)N3Cc2ccc(S(C)(=O)=O)cc2)c1` (centres unmarked) [Example 101, N-(3-(5-(4-(methylsulfonyl)benzyl)-6-oxo-5,6,6a,7,9,10-hexahydro-[1,4]oxazino[3,4-h]pteridin-2-yl)phenyl)acetamide], the IC50 was 0.316 µM.
The value for `CS(=O)(=O)Nc1ccc(-c2ncc3c(n2)N2CCOCC2C(=O)N3Cc2ccc(S(C)(=O)=O)cc2)cc1` (centres unmarked) [Example 102, N-(4-(5-(4-(methylsulfonyl)benzyl)-6-oxo-5,6,6a,7,9,10-hexahydro-[1,4]oxazino[3,4-h]pteridin-2-yl)phenyl)methanesulfonamide] was 0.2 µM; that for `CS(=O)(=O)c1ccc(CN2C(=O)C3COCCN3c3nc(-c4cccc(N)c4)ncc32)cc1` (centres unmarked) [Example 103, 2-(3-aminophenyl)-5-(4-(methylsulfonyl)benzyl)-6a,7,9,10-tetrahydro-[1,4]oxazino[3,4-h]pteridin-6(5H)-one] was 0.126 µM.
In the case of `CC(=O)Nc1ccccc1-c1ncc2c(n1)N1CCOCC1C(=O)N2Cc1ccc(S(C)(=O)=O)cc1` (centres unmarked) [Example 104, N-(2-(5-(4-(methylsulfonyl)benzyl)-6-oxo-5,6,6a,7,9,10-hexahydro-[1,4]oxazino[3,4-h]pteridin-2-yl)phenyl)acetamide], the IC50 was 0.2 µM.
As for `CCOC(=O)c1cncc(-c2ncc3c(n2)N2CCOCC2C(=O)N3Cc2ccc(S(C)(=O)=O)cc2)c1` (centres unmarked) [Example 105, ethyl 5-(5-(4-(methylsulfonyl)benzyl)-6-oxo-5,6,6a,7,9,10-hexahydro-[1,4]oxazino[3,4-h]pteridin-2-yl)nicotinate], the IC50 is 7.94 µM.
Turning to `CS(=O)(=O)c1ccc(CN2C(=O)C3COCCN3c3nc(-c4ccc(N)nc4)ncc32)cc1` (centres unmarked) [Example 106, 2-(6-aminopyridin-3-yl)-5-(4-(methylsulfonyl)benzyl)-6a,7,9,10-tetrahydro-[1,4]oxazino[3,4-h]pteridin-6(5H)-one], the IC50 is 0.00794 µM.
The value for `CS(=O)(=O)c1ccc(CN2C(=O)C3COCCN3c3nc(-c4ccc(C(N)=O)cc4)ncc32)cc1` (centres unmarked) [Example 107, 4-(5-(4-(methylsulfonyl)benzyl)-6-oxo-5,6,6a,7,9,10-hexahydro-[1,4]oxazino[3,4-h]pteridin-2-yl)benzamide] was 0.398 µM.
Take `CS(=O)(=O)c1ccc(CN2C(=O)C3COCCN3c3nc(-c4cnc5[nH]ccc5c4)ncc32)cc1` (centres unmarked) [Example 108, 5-(4-(methylsulfonyl)benzyl)-2-(1H-pyrrolo[2,3-b]pyridin-5-yl)-6a,7,9,10-tetrahydro-[1,4]oxazino[3,4-h]pteridin-6(5H)-one]: the IC50 was 0.0316 µM.
In the case of `CNC(=O)c1ccc(-c2ncc3c(n2)N2CCOCC2C(=O)N3Cc2ccc(S(C)(=O)=O)cc2)cn1` (centres unmarked) [Example 109, N-methyl-5-(5-(4-(methylsulfonyl)benzyl)-6-oxo-5,6,6a,7,9,10-hexahydro-[1,4]oxazino[3,4-h]pteridin-2-yl)picolinamide], the IC50 is 7.94 µM.
`CS(=O)(=O)c1ccc(CN2C(=O)C3COCCN3c3nc(-c4cccc(-c5cc[nH]n5)c4)ncc32)cc1` (centres unmarked) [Example 110, 2-(3-(1H-pyrazol-3-yl)phenyl)-5-(4-(methylsulfonyl)benzyl)-6a,7,9,10-tetrahydro-[1,4]oxazino[3,4-h]pteridin-6(5H)-one]: the IC50 is 3.16 µM.
For the compound `CNS(=O)(=O)c1cccc(-c2ncc3c(n2)N2CCOCC2C(=O)N3Cc2ccc(S(C)(=O)=O)cc2)c1` (centres unmarked) [Example 111, N-methyl-3-(5-(4-(methylsulfonyl)benzyl)-6-oxo-5,6,6a,7,9,10-hexahydro-[1,4]oxazino[3,4-h]pteridin-2-yl)benzenesulfonamide], the IC50 is 1.58 µM.
As to `CC(=O)Nc1ccc(-c2ncc3c(n2)N2CCOCC2C(=O)N3Cc2ccc(S(C)(=O)=O)cc2)cc1` (centres unmarked) [Example 112, N-(4-(5-(4-(methylsulfonyl)benzyl)-6-oxo-5,6,6a,7,9,10-hexahydro-[1,4]oxazino[3,4-h]pteridin-2-yl)phenyl)acetamide], the IC50 was 0.0316 µM.
In the case of `CS(=O)(=O)c1ccc(CN2C(=O)C3COCCN3c3nc(-c4cccc(C(N)=O)c4)ncc32)cc1` (centres unmarked) [Example 113, 3-(5-(4-(methylsulfonyl)benzyl)-6-oxo-5,6,6a,7,9,10-hexahydro-[1,4]oxazino[3,4-h]pteridin-2-yl)benzamide], the IC50 was 0.501 µM.
With `CS(=O)(=O)c1ccc(CN2C(=O)C3COCCN3c3nc(-c4ccc5[nH]ncc5c4)ncc32)cc1` (centres unmarked) [Example 114, 2-(1H-indazol-5-yl)-5-(4-(methylsulfonyl)benzyl)-6a,7,9,10-tetrahydro-[1,4]oxazino[3,4-h]pteridin-6(5H)-one], the IC50 was 0.2 µM.
With `CS(=O)(=O)c1ccc(CN2C(=O)C3COCCN3c3nc(-c4cccc(S(N)(=O)=O)c4)ncc32)cc1` (centres unmarked) [Example 115, 3-(5-(4-(methylsulfonyl)benzyl)-6-oxo-5,6,6a,7,9,10-hexahydro-[1,4]oxazino[3,4-h]pteridin-2-yl)benzenesulfonamide], the IC50 is 0.631 µM.
Regarding `CS(=O)(=O)c1ccc(CN2C(=O)C3COCCN3c3nc(-c4cccc(S(=O)(=O)NC5CC5)c4)ncc32)cc1` (centres unmarked) [Example 116, N-cyclopropyl-3-(5-(4-(methylsulfonyl)benzyl)-6-oxo-5,6,6a,7,9,10-hexahydro-[1,4]oxazino[3,4-h]pteridin-2-yl)benzenesulfonamide], the IC50 was 1.58 µM.

Values taken from US8791107B2, “N-substituted oxazinopteridines and oxazinopteridinones” (Takeda Pharmaceutical Company Limited, priority 2011, dated 2014).
